Laboratory results from patent US20200237695A1, “LEVOTHYROXINE LIQUID FORMULATIONS” (Hikma Pharmaceuticals USA Inc., priority 2019, published 2020).
Values after ≈ are worked out from the molar mass of the structure shown.

Test: Levothyroxine solubilization in aqueous amino acid solutions
Type: physicochemical
Conditions: aqueous buffer
Method: The formulations can further include one or more pH adjusters, for example, a single pH adjuster. The pH adjuster can be an amino acid, which can be the sole amino acid and pH adjuster in the formulation. The pH adjuster serves to aid in adjusting the pH of the aqueous formulation and selectively the solubilization of levothyroxine or any salt thereof in the liquid formulation. In one or more embodiments, the pH adjuster is arginine. In water, a concentration of arginine from about 1 mg/mL to about 20 mg/mL adjust the pH of water to about 10.3 to about 11.

solubility (aqueous arginine solution, arginine in aqueous solutions): > 500 µg/mL
solubility (aqueous aspartic acid solution, aspartic acid 1 mg/mL in water): 450 µg/mL (≈ 579 µM)
solubility (aqueous aspartic acid solution, aspartic acid 4 mg/mL in water): 100 µg/mL (≈ 129 µM)
Compound: N[C@@H](Cc1cc(I)c(Oc2cc(I)c(O)c(I)c2)c(I)c1)C(=O)O [levothyroxine, 4-(4-hydroxy-3,5-diiodophenoxy)-3,5-diiodo-L-phenylalanine]
